Reference: patent US5231216A, “Trans-2-acylaminocyclohexyloxyacyldipeptides in the form of mixtures of diastereoisomers thereof and in the form of pure diasteredisomers, process for the preparation thereof and pharmaceutical compositions containing the same” (Univerza Edvarda Kardelja v Ljubljana, priority 1990, dated 1993)
Read-outs that look alike come from different tables or passages of the source.

Legend:
lymphocytes B = assay: Determination of haemolytic plaques for the assessment of the maturation of lymphocytes B; type: in vivo, female HAN-NmRI strain mice; conditions: evaluation summary
Experimental: (§1) Immunological studies were performed on female HAN-NmRI strain mice of 3-4 weeks, weighing from 17-20 g.
A 1% suspension of sheep erythrocytes (Institute of Microbiology, Faculty of Medicine, Ljubljana, Yugoslavia) in physiological saline was used for the immunisation. First, individual mice were administered 0.2 ml of this suspension by i.p. injection, followed next day by 0.1 ml (1 μg/mouse) of the test substance. The immunisation was completed on the fifth day after the administration of sheep erythrocytes and the mice were sacrificed.
Their spleens were removed and homogenized in Parker 199 Medium with added aminoacids, streptomycin and sodium carbonate (Torlak, Beograd, Yugoslavia). The lymphocytes were separated on the Ficol Separating Medium (Pharmacia, Uppsala, Sweden). After repeated rinsing with Parker 199 Medium, the cells were resuspended in RPMI 1640 nutrient medium with added 10% of foetal calf serum and streptomycin. To 50 μl of the cell suspension, 450 μl of trypan blue were added and the cells were counted in Neubauer's chamber. The number of lymphocytes per ml of the cell suspension was calculated. […] After the completion of the incubation, the plaques were counted under microscope.
The number of plaques per 1×10^6 cells was calculated according to the following equations: [formula]

Fibrosarcoma SA-1 = conditions: for Time needed for the tumour growth to the volume of 150 mm^3, Number of days (± SD) / Growth delay (± SD): 5 doses; for Time needed for the tumour growth to the volume of 150 mm^3, Number of days (± SD): control 5.5 ± 0.8
Experimental: The studies were performed on A/J strain mice (Institute Rudjer Boskovic, Zagreb, Yugoslavia) of 8 to 10 weeks. All animals used in the same experiment were of the same sex and age.
Fibrosarcoma SA-1 was used as the experimental tumour model. Tumorous cells were obtained from the ascitic form of the SA-1 tumour of the syngeneic A/J mouse. They were implanted into animals dorsilaterally by s.c. injection of 5×10^5 tumour cells. The testing was started after the tumours had grown to a volume of 35 mm^3. The test substance was injected i.p. on five consecutive days in a dose of 2.5 or 25 μg. The growth of the tumours was monitored by measuring the diameters and the thickness of the tumours. The tumour volumes were calculated according to the formula 0.523×a×b×c (a, b and c being the tumour diameters).
The delay in the growth of each individual tumour was obtained by deducting the relevant time of growth of the tumour in the control group from the time needed for the growth of the tumour to reach the volume of 150 mm^3.

[1] = Pyrogenous activity according to USP XXII; type: in vivo; conditions: method of USP XXII
Experimental: The pyrogenous activity was determined according to the method of USP XXII.

peritoneal macrophages [2] = assay: Determination of the number of macrophages in peritoneal cavity washings; type: in vivo, female HAN-NmRI strain mice; conditions: daily doses 25, 2.5 and 0.25 μg on 3 days; after Brewer's thioglycolate stimulation
Experimental: as §1
(§2) In tests 1.1 to 1.5, the animals were first administered the Brewer's thioglycolate medium by i.p. injection, which was followed after 6 hours by the injection of 0.5 ml of a solution containing 25 μg, 2.5 μg and 0.25 μg respectively of N-acetyl-muramyl-L-alanyl-D-isoglutamine (muramyl dipeptide, MDP) or of N-[trans-2-(2'-acetylaminocyclohexyloxy)acetyl]-L-alanyl-D-glutaminic acid (compound 1, Example 12B). Equal doses were administered to the animals on days 2 and 3. On day 4 the animals were sacrificed and the spleen and the peritoneal macrophages were isolated.
The number of macrophages in the peritoneal cavity washings was determined three days after the stimulation with Brewer's thioglycolate medium. The cells were suspended in ice-cold RPMI 1640 medium, to which trypan blue was added, and counted in Neubauer's chamber.

[3] = Toxicity, average lethal dose (LD50); type: in vivo; conditions: i.v. application, male mice
Experimental: The average lethal dose (LD50) at i.v. application of the compound 1 in male mice was >500 mg/kg.

splenic lymphocytes B = assay: Determination of the number of lymphocytes B (splenic, fluorescence microscopy); type: in vivo, female HAN-NmRI strain mice; conditions: daily doses 25, 2.5 and 0.25 μg on 3 days; spleen isolated on day 4
Experimental: as §1, §2
(§3) To the isolated splenic lymphocytes there were added fluorescein isothiocyanate labelled antimouse antibodies (for the determination of lymphocytes B) and anti-Thy 1 monoclonal antibodies (for the determination of lymphocytes T) respectively. After incubation and rinsing with RPMI 1640 medium (Gibco, Great Britain), the lymphocytes were counted by fluorescence microscopy.

splenic lymphocytes T = assay: Determination of the number of lymphocytes T (splenic, fluorescence microscopy); type: in vivo, female HAN-NmRI strain mice; conditions: daily doses 25, 2.5 and 0.25 μg on 3 days; spleen isolated on day 4
Experimental: as §1, §2, §3

peritoneal macrophages [4] = assay: Activation of peritoneal macrophages (ferricytochrome C reduction) with additional in vitro PMA stimulation; type: in vivo, female HAN-NmRI strain mice; conditions: for Difference in absorbancies of the test sample and of the blank per mg of cell protein, x ± s.e.m (n): control 1004 ± 38
Experimental: as §1, §2
(§4) The peritoneal cavity of the animals was rinsed with 4 ml of ice-cold RPMI 1640 medium. The cytolysis of erythrocytes was effected with 0.2% NaCl. The remaining cells were washed twice in a cooled centrifuge at 4° and 1500 rpm for 5 minutes with ice-cold RPMI 1640 medium. The cells were re-suspended and the concentration was adjusted to 1.5×10^6 /ml. The cell suspension was distributed among the flat bottom wells of a microtitration palte (T grade, Nunc, Denmark). After incubating for 2 hours at 37° C., 5% CO2 and 95% humidity, the wells were rinsed with warm RPMI 1640 medium and the adhering macrophages were used for testing.
(§5) After incubating for 90 minutes at 37° C., 5% CO2 and 95% humidity, the absorbance was measured at the wavelength of 570 nm.
(§6) The results are shown in Table 2 as the difference in the absorbance of the test sample and of the blank, calculated for 1 mg of cell protein.

[5] = system: splenic lymphocytes (lymphocytes T) stimulated with concanavalin A; assay: Blast transformation of lymphocytes stimulated in vitro with concanavalin A after in vivo treatment; parameters: species or system female HAN-NmRI strain mice; conditions: for Amount of active thymidine incoporated in lymphocyte DNA (cpm), x ± s.e.m (n): control 10130 ± 476
Experimental: as §1, §2
Isolated splenic lymphocytes were prepared in a concentration of 1×10^6 /ml in the RPMI 1640 medium, to which there were added 10% of foetal calf serum (FCS) (Sera-Lab, Great Britain), 1 ml of 200 mM L-glutamine solution and 1 ml of an antibiotic solution (100 U/ml of penicillin and 100 μg/ml of streptomycin) for 100 ml of complete medium. To each flat bottom well of a microtitration plate (T grade, Nunc, Denmark) 100 μl of the cell suspension were distributed. The cells were stimulated in vitro by adding concanavalin A (con A)(Pharmacia, Sweden) at respective concentrations of 16, 8, and 4 μg/ml. Control lymphocyte cultures were grown in basal medium only. The cells were then incubated at 37° C., 5% CO2 and 95% humidity for 2 days, followed by the addition of tritium labelled thymidine. After 16 hours the samples were prepared for the measurement in a β-counter. The results were expressed as incorporation indexes with respect to the control group of the animals.

peritoneal macrophages [6] = assay: Activation of peritoneal macrophages (ferricytochrome C reduction) without additional PMA stimulation; type: in vivo, female HAN-NmRI strain mice; conditions: for Difference in absorbancies of the test sample and of the blank per mg of cell protein, x ± s.e.m (n): control 275 ± 26
Experimental: as §1, §2, §4, §5, §6

[7] = daily dose 0.25 μg for 3 consecutive days
[8] = daily dose 2.5 μg for 3 consecutive days
[9] = daily dose 25 μg for 3 consecutive days

Compound: CC(=O)N[C@@H]1CCCC[C@H]1OCC(=O)N[C@@H](C)C(=O)N[C@H](CCC(=O)O)C(=O)O (relative stereo) [Compound 1, N-[trans-2-(2'-acetylaminocyclohexyloxy)acetyl]-L-alanyl-D-glutaminic acid]
- maturation of lymphocytes B to plasma cells (lymphocytes B): enhances the muturation of lymphocytes B to plasma cells
- Time needed for the tumour growth to the volume of 150 mm^3, Number of days (± SD) (Fibrosarcoma SA-1; 2.5 μg daily i.p.): 6.4 ± 0.9 days
- Growth delay (± SD) (Fibrosarcoma SA-1; 2.5 μg daily i.p., p<0.2 compared with control): 0.9 ± 0.4
- Time needed for the tumour growth to the volume of 150 mm^3, Number of days (± SD) (Fibrosarcoma SA-1; 25.0 μg daily i.p.): 7.3 ± 1.3 days
- Growth delay (± SD) (Fibrosarcoma SA-1; 25.0 μg daily i.p., p<0.002 compared with control): 1.8 ± 0.4
- difference in antitumour activity between the higher and the lower dose (Fibrosarcoma SA-1; 25 μg versus 2.5 μg): no statistically significant difference in activity between the higher and the lower dose
- delay in tumour growth in combination with tumour necrosis factor (Fibrosarcoma SA-1; compound 1 2.5 μg combined with recombinant tumour necrosis factor α (5×10^5 U)): increased delay in tumour growth
- antitumour activity in comparison to the control (Fibrosarcoma SA-1; dose 25 μg, p<0.002): moderate and statistically significant
- pyrogenous activity [1]: did not show any pyrogenous activity
- number of peritoneal macrophages (peritoneal macrophages [2]): not altered to a statistically significant extent
- average lethal dose (LD50) [3]: > 500 mg/kg
- number of splenic lymphocytes B (splenic lymphocytes B): Neither the number of splenic lymphocites B nor of lymphocytes T was altered to a statistically significant extent
- number of splenic lymphocytes T (splenic lymphocytes T): Neither the number of splenic lymphocites B nor of lymphocytes T was altered to a statistically significant extent
- Difference in absorbancies of the test sample and of the blank per mg of cell protein, x ± s.e.m (n) (peritoneal macrophages [4]; [7]): 1298 ± 334
- Difference in absorbancies of the test sample and of the blank per mg of cell protein, x ± s.e.m (n) (peritoneal macrophages [4]; [8]): 1494 ± 199
- Difference in absorbancies of the test sample and of the blank per mg of cell protein, x ± s.e.m (n) (peritoneal macrophages [4]; [9]): 1709 ± 374
- increase of macrophage activity (peritoneal macrophages [4]; dose 2.5 μg, p<0.05): 50%
- difference in macrophage activation between muramyl dipeptide and compound 1 (peritoneal macrophages [4]; dose 25 μg): no statistically significant different
- increase of macrophage activity (peritoneal macrophages [4]; dose 25 μg): 70%
- Amount of active thymidine incoporated in lymphocyte DNA (cpm), x ± s.e.m (n) [5, 7]: 10780 ± 2680 cpm
- Amount of active thymidine incoporated in lymphocyte DNA (cpm), x ± s.e.m (n) [5, 8]: 16830 ± 6610 cpm
- Amount of active thymidine incoporated in lymphocyte DNA (cpm), x ± s.e.m (n) [5, 9]: 25990 ± 7850 cpm
- immunomodulatory effect in lymphocytes T compared with MDP ([5]; dose 25 μg): statistically greater (p<0.05) immunomodulatory effect
- increase of the blastic activity of lymphocytes T ([5]; dose 25 μg, p<0.05, versus control): about 150%
- Difference in absorbancies of the test sample and of the blank per mg of cell protein, x ± s.e.m (n) (peritoneal macrophages [6]; daily dose 0.25 μg): 237 ± 94
- Difference in absorbancies of the test sample and of the blank per mg of cell protein, x ± s.e.m (n) (peritoneal macrophages [6]; daily dose 2.5 μg): 431 ± 85
- Difference in absorbancies of the test sample and of the blank per mg of cell protein, x ± s.e.m (n) (peritoneal macrophages [6]; daily dose 25 μg): 489 ± 97
- increase of macrophage activity (peritoneal macrophages [6]; dose 2.5 μg, p<0.06): 55%
- difference in macrophage activation between muramyl dipeptide and compound 1 (peritoneal macrophages [6]; dose 25 μg): no statistically significant different
- increase of macrophage activity (peritoneal macrophages [6]; dose 25 μg, p<0.05): 70%
